Data: publication PMC3306445 (Journal of Medicinal Chemistry, 2012)

Assays:
[1] = molecular target: Pseudomonas aeruginosa thymidylate monophosphate kinase (TMK) (Pseudomonas aeruginosa, UniProt Q9HZN8); assay: Thymidylate kinase kinetic assay; assay type: biochemical; conditions: for fold improved inhibition over 1: PaTMK IC50 compared with 1; for fold decreased inhibition compared with 17: PaTMK IC50 compared with 17; for fold improved potency over 19: PaTMK IC50 compared with secondary amide 19
Chain of Pseudomonas aeruginosa thymidylate monophosphate kinase (TMK) (Q9HZN8 whole entry): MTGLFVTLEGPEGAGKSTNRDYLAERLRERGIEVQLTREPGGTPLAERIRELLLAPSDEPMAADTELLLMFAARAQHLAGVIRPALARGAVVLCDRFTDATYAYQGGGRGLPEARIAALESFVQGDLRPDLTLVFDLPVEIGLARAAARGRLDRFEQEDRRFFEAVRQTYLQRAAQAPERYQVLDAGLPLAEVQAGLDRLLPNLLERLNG

TMK = conditions: high binding affinity due to LID loop closure; cited from earlier work

Cn1c(=O)[nH]c2ncc(-c3cccc(C#N)c3)cc21 [Compound 14, 3-(1-Methyl-2-oxo-2,3-dihydro-1H-imidazo[4,5-b]pyridin-6-yl)benzonitrile]
PaTMK inhibition (in words) [1]: inactive

Cl.Cn1c(=O)[nH]c2ncc(-c3cccc(CN)c3)cc21 [Compound 15, 6-(3-(Aminomethyl)phenyl)-1-methyl-1H-imidazo[4,5-b]pyridin-2(3H)-one hydrochloride]
PaTMK inhibition (in words) [1]: lack of activity

Cn1c(=O)[nH]c2ncc(-c3cccc(C(N)=O)c3)cc21 [Compound 17, 3-(1-Methyl-2-oxo-2,3-dihydro-1H-imidazo[4,5-b]pyridin-6-yl)benzamide]
fold improved inhibition over 1 [1]: 130 fold | fold increase of PaTMK inhibition over 26 ([1]; compared with 26 (p-carboxamide)): ca. 1000 fold

CNC(=O)c1cccc(-c2cnc3[nH]c(=O)n(C)c3c2)c1 [Compound 19, N-Methyl-3-(1-methyl-2-oxo-2,3-dihydro-1H-imidazo[4,5-b]pyridin-6-yl)benzamide]
fold improved inhibition over 1 [1]: 30 fold | fold decreased inhibition compared with 17 [1]: 5 fold

CN(C)C(=O)c1cccc(-c2cnc3[nH]c(=O)n(C)c3c2)c1 [Compound 20, N,N-Dimethyl-3-(1-methyl-2-oxo-2,3-dihydro-1H-imidazo[4,5-b]pyridin-6-yl)benzamide]
fold decreased inhibition compared with 17 [1]: 240 fold

Cn1c(=O)[nH]c2ncc(-c3cccc(C(=O)NCC(N)=O)c3)cc21 [Compound 30, N-(2-Amino-2-oxoethyl)-3-(1-methyl-2-oxo-2,3-dihydro-1H-imidazo[4,5-b]pyridin-6-yl)benzamide]
fold improved potency over 19 [1]: about 2.5 fold

Cn1c(=O)[nH]c2ncc(-c3cccc(C(=O)NCC(=O)O)c3)cc21 [Compound 31, 2-(3-(1-Methyl-2-oxo-2,3-dihydro-1H-imidazo[4,5-b]pyridin-6-yl)benzamido)acetic acid]
fold improved potency over 19 [1]: about 2.5 fold

Cn1c(=O)[nH]c2ncc(-c3cccc(C(=O)NCCCc4ccc(F)cc4)c3)cc21 [Compound 47, N-(3-(4-Fluorophenyl)propyl)-3-(1-methyl-2-oxo-2,3-dihydro-1H-imidazo[4,5-b]pyridin-6-yl)benzamide]
fold improved potency over 19 [1]: ca. 18 fold

Cn1c(=O)[nH]c2ncc(-c3cccc(C(=O)NCCCc4c[nH]c5ccccc45)c3)cc21 [Compound 48, N-(3-(1H-Indol-3-yl)propyl)-3-(1-methyl-2-oxo-2,3-dihydro-1H-imidazo[4,5-b]pyridin-6-yl)benzamide]
fold improved potency over 19 [1]: ca. 18 fold

Cn1c(=O)[nH]c2ncc(-c3cccc(C(=O)NCC(Cc4ccccc4)C(=O)O)c3)cc21 (centres unmarked) [Compound 53, 2-Benzyl-3-(3-(1-methyl-2-oxo-2,3-dihydro-1H-imidazo[4,5-b]pyridin-6-yl)benzamido)propanoic acid]
fold improved potency over 19 [1]: ca. 18 fold

Cn1c(=O)[nH]c2ncc(-c3cccc(C(=O)NCCCc4ccc(C(F)(F)F)cc4)c3)cc21 [Compound 57, 3-(1-Methyl-2-oxo-2,3-dihydro-1H-imidazo[4,5-b]pyridin-6-yl)-N-(3-(4-(trifluoromethyl)phenyl)propyl)benzamide]
fold improved potency over 19 [1]: ca. 18 fold

Cc1cn([C@H]2C[C@H](O)[C@@H](COP(=O)(O)OP(=O)(O)OP(=O)(O)OP(=O)(O)OP(=O)(O)OC[C@H]3O[C@@H](n4cnc5c(N)ncnc54)[C@H](O)[C@@H]3O)O2)c(=O)[nH]c1=O [TP5A, P1-(5′-adenosyl)-P5-(5′-thymidyl)pentaphosphate]
Kd (TMK): 0.02 µM
